pIC50: −log10 of the molar value. Where a name gives a salt, the structure may show the parent alone. Active and inactive are the calls of the source. The rule behind the calls is not given here.
How the values were obtained:
Type in all cases: functional, cell-based
[1] = system: HL-60; assay: Cytotoxicity against human HL60 cells by MTT assay
[2] = system: Lewis lung carcinoma; assay: Cytotoxicity against mouse LLC by MTT assay
[3] = system: MCF7; assay: Cytotoxicity against human MCF7 cells by MTT assay

| SMILES | pIC50 [1] | Activity [2] | Activity [3] | Activity [1] |
| --- | --- | --- | --- | --- |
| COc1cccc2c1C(=O)c1c(O)c3c(c(O)c1C2=O)C[C@@](O)(C(=O)CO)C[C@@H]3O[C@H]1C[C@H](N)[C@H](O)[C@H](C)O1 [DOXORUBICIN HYDROCHLORIDE] | 6.74 | – | – | – |
| C[C@@]12[C@@H](OC(=O)c3cccnc3)[C@H](OC(=O)c3ccccc3)[C@](C)(O)[C@](C)(/C=C/C3=CC(=O)OC3)[C@H]1CC=C[C@]2(C)O | – | inactive | inactive | inactive |
| CC(=O)O[C@@H](CC1=CC(=O)OC1)[C@]1(C)[C@H]2CCC=C(C)[C@]2(C)[C@@H](OC(=O)c2cccnc2)[C@H](OC(=O)c2ccccc2)[C@]1(C)O [BARBATELLARINES B] | 4.38 | – | – | – |

Source: ChEMBL document CHEMBL1153185, “Two novel neo-clerodane diterpenoids from Scutellaria barbata” (Bioorg Med Chem Lett, 2010)
